One experiment deals with S. aureus RN450. Kind of experiment: Antibacterial activity MIC, Gram+ (Table 9). The experiment is classed as cell-based. As to conditions: Staphylococcus aureus, CAMHB, 35° C., approximately 18 hr. As for the experimental part: (§1) 2 mg of each compound is dissolved in 100 μl of DMSO. The solution is then added to cation-adjusted Mueller Hinton broth (CAMHB), which results in a final compound concentration of 200 μg per ml. The tetracycline compound solutions are diluted to 50 μL volumes, with a test compound concentration of 0.098 μg/ml. Optical density (OD) determinations are made from fresh log-phase broth cultures of the test strains. Dilutions are made to achieve a final cell density of 1×10^6 CFU/ml. At OD=1, cell densities for different genera should be approximately:
(§2) 50 μl of the cell suspensions are added to each well of microtiter plates. The final cell density should be approximately 5×10^5 CFU/ml. These plates are incubated at 35° C. in an ambient air incubator for approximately 18 hr. The plates are read with a microplate reader and are visually inspected when necessary. The MIC is defined as the lowest concentration of the tetracycline compound that inhibits growth.

The test system of a further experiment is E. coli 25922. Kind of experiment: Antibacterial activity MIC, Gram- (Table 9). In kind it is cell-based. As to conditions: Escherichia coli, CAMHB, 35° C., approximately 18 hr. As for the experimental part:
as §1, §2

The test system of experiment [1] is collagen-induced arthritis (CIA) in male DBA/1 mice. Briefly: CIA model, Example 3 (cumulative scores vs untreated controls). The experiment is classed as in vivo. As to conditions: Mus musculus. As for the experimental part:
The CIA model data were acquired according to the following protocol: • 1. Male DBA/1 mice were anaesthetized by i.p. injection of ketamine/xylazine (1.25 mg/ml:0.25 mg/ml, 100 μl/mouse). • 2. Anaesthetized mice were immunized intradermally at the base of the tail with 0.1 or 0.2 ml of an emulsion composed of 100 or 200 μg bovine type II collagen in Complete Freund's Adjuvant (50 μl/spot x 2 or 4 spots). • 3. At day 21 after the immunization, mice received an intradermal boost of 100 μl of an emulsion composed of 100 μg bovine type II collagen in Incomplete Freund's Adjuvant (50 μl/spot x 2 spots) • 4. After onset of disease symptoms (usually 3-4 days after boost), tetracycline derivatives were administered daily into mice via intraperitoneal or oral routes for 8 to 15 days. Methotrexate (12 mg/kg/day) or dexmethasone (4 mg/kg/day) was used as a control for inflammation suppression. • 5. The disease severity was scored daily for 8-15 days after the appearance of the symptoms. Disease severity was graded as following: • a. Visual clinical score for the presence of inflammation in the fingers/toes of the forepaws and hindpaws: • 1. Erythema and mild swelling confined to the mid-foot (tarsals) or ankle joint • 2. Erythema and mild swelling extending from the ankle to the mid-foot • 3. Erythema and moderate swelling extending from the ankle to the metatarsal joints • 4. Erythema and severe swelling encompassing the ankle, foot, and digits. • b. Clinical swelling score for the presence of paw edema in the forepaws and hindpaws: • Paw thickness was measured daily by an engineering micrometer after isofluorane inhalation or ketamine/xylazine (1.25 mg/ml:0.25 mg/ml, 100 μl/mouse) i.p. injection.
Daily scores and paw swelling measurements for each treatment group of mice were added over the total observation period to obtain a cumulative score. Cumulative scores were compared between untreated controls and treated groups to determine tetracycline-induced inhibition.

In brackets after ≈: the same amount, converted by molar mass. Some results are limits rather than exact numbers.

By MIC is commonly meant the lowest concentration found to suppress growth. One may read the inhibition in vivo as the share of the control response that was lost under treatment. The low end stands for a response near the control, the high end for a response far below the control. Regarding `CCOC(=O)c1cc(N(C)C)c2c(c1O)C(=O)C1=C(O)[C@]3(O)C(=O)C(C(N)=O)=C(O)C[C@@H]3C[C@@H]1C2` [AA], the MIC with S. aureus RN450 was 2 µg/mL (≈ 4.11 µM); against E. coli 25922 it was greater than 64 µg/mL. Further, in experiment [1], the inhibition in vivo at 25 mg/kg was determined as 41%.
Taken in the same sequence, the figures for `CN(C)c1cc(-c2cnoc2)c(O)c2c1C[C@H]1C[C@H]3CC(O)=C(C(N)=O)C(=O)[C@@]3(O)C(O)=C1C2=O` [AB] were 0.5 µg/mL (≈ 1.04 µM), greater than 64 µg/mL and 38%.
Taken in the same sequence, the figures for `CN(C)c1cc(-c2ccn[nH]2)c(O)c2c1C[C@H]1C[C@H]3CC(O)=C(C(N)=O)C(=O)[C@@]3(O)C(O)=C1C2=O` [AC] were 2 µg/mL (≈ 4.16 µM), greater than 64 µg/mL and 33%.
Taken in the same sequence, the figures for `CO/N=C(/C)c1cc(N(C)C)c2c(c1O)C(=O)C1=C(O)[C@]3(O)C(=O)C(C(N)=O)=C(O)C[C@@H]3C[C@@H]1C2` [AD] were 2 µg/mL (≈ 4.12 µM), greater than 64 µg/mL and 30%.
As for `CN(C)c1cc(-c2cccnc2)c(O)c2c1C[C@H]1C[C@H]3CC(O)=C(C(N)=O)C(=O)[C@@]3(O)C(O)=C1C2=O` [AE], the MIC against S. aureus RN450 was 1 µg/mL (≈ 2.03 µM); against E. coli 25922, greater than 64 µg/mL. This compound came in with an inhibition in vivo at 12 mg/kg in experiment [1] of 65%. In experiment [1], this compound displayed an inhibition in vivo at 25 mg/kg of 80%.
In the case of `CN(C)c1cc(-c2ccco2)c(O)c2c1C[C@H]1C[C@H]3CC(O)=C(C(N)=O)C(=O)[C@@]3(O)C(O)=C1C2=O` [AG], the MIC against S. aureus RN450 is 0.25 µg/mL (≈ 0.52 µM); in the experiment with E. coli 25922 it was greater than 64 µg/mL. The compound also showed an inhibition in vivo at 25 mg/kg in experiment [1] of 39%.
Turning to `CN(C)c1cc(C(=O)NC(C)(C)C)c(O)c2c1C[C@H]1C[C@H]3CC(O)=C(C(N)=O)C(=O)[C@@]3(O)C(O)=C1C2=O` [AH], the MIC against S. aureus RN450 is 1 µg/mL (≈ 1.95 µM); with E. coli 25922 it was greater than 64 µg/mL. Also, in experiment [1], 25 mg/kg produced 59% inhibition in vivo.
For the compound `CN(C)c1cc(C(=O)Nc2ccccc2)c(O)c2c1C[C@H]1C[C@H]3CC(O)=C(C(N)=O)C(=O)[C@@]3(O)C(O)=C1C2=O` [AI], the MIC was 0.12 µg/mL (≈ 0.225 µM) against S. aureus RN450 and greater than 64 µg/mL in the experiment with E. coli 25922. For the same compound, in experiment [1], testing at 25 mg/kg gave an inhibition in vivo of 62%.
As to `CN(C)c1cc(-c2nccs2)c(O)c2c1C[C@H]1C[C@H]3CC(O)=C(C(N)=O)C(=O)[C@@]3(O)C(O)=C1C2=O` [AJ], the values for the MIC against S. aureus RN450 and against E. coli 25922 were 0.25 µg/mL (≈ 0.502 µM) and greater than 64 µg/mL, respectively. This compound also displayed an inhibition in vivo at 25 mg/kg in experiment [1] of 39%.
On to `CN(C)c1cc(C(=O)OCCO)c(O)c2c1C[C@H]1C[C@H]3CC(O)=C(C(N)=O)C(=O)[C@@]3(O)C(O)=C1C2=O` [AK], for which the MIC with S. aureus RN450 and with E. coli 25922 was greater than 64 µg/mL throughout. Moreover, the inhibition in vivo at 25 mg/kg in experiment [1] stood at 24%.
`CCC(=O)c1cc(N(C)C)c2c(c1O)C(=O)C1=C(O)[C@]3(O)C(=O)C(C(N)=O)=C(O)C[C@@H]3C[C@@H]1C2` [AL] returned an MIC with S. aureus RN450 of 1 µg/mL (≈ 2.13 µM). In the experiment on E. coli 25922, this compound came in with a minimum inhibitory concentration (MIC) greater than 64 µg/mL. In experiment [1], this compound had an inhibition in vivo at 12 mg/kg of 31% and an inhibition in vivo at 25 mg/kg of 62%.
Turning to `Cc1cc(N(C)C)c2c(c1O)C(=O)C1=C(O)[C@]3(O)C(=O)C(C(N)=O)=C(O)C[C@@H]3C[C@@H]1C2` [AM], the MIC in the experiment on S. aureus RN450 amounted to 2 µg/mL (≈ 4.67 µM). The MIC in the experiment on E. coli 25922 is greater than 64 µg/mL. In experiment [1] (Dose 6 mg/kg), this compound displayed an inhibition in vivo at 6 mg/kg of 36%. Further, in experiment [1], the inhibition in vivo at 12 mg/kg was 66% and at 25 mg/kg the inhibition in vivo was 73%.
For `CN(C)c1cc(-c2ccccc2)c(O)c2c1C[C@H]1C[C@H]3CC(O)=C(C(N)=O)C(=O)[C@@]3(O)C(O)=C1C2=O` [AN], the minimal inhibitory concentration (MIC) is 1 µg/mL (≈ 2.04 µM) against S. aureus RN450 and greater than 64 µg/mL against E. coli 25922. Also, in experiment [1], the inhibition in vivo at 12 mg/kg was found to be 49%. In experiment [1], this compound showed an inhibition in vivo at 25 mg/kg of 65%.
Consider `COCCOC(=O)c1cc(N(C)C)c2c(c1O)C(=O)C1=C(O)[C@]3(O)C(=O)C(C(N)=O)=C(O)C[C@@H]3C[C@@H]1C2` [AO], for which the values for the MIC against S. aureus RN450 and against E. coli 25922 were 16 µg/mL (≈ 31 µM) and greater than 64 µg/mL, respectively. In addition, the inhibition in vivo at 25 mg/kg in experiment [1] worked out at 52%.
Taken in the same sequence, the figures for `CN(C)c1cc(C2=CCCCO2)c(O)c2c1C[C@H]1C[C@H]3CC(O)=C(C(N)=O)C(=O)[C@@]3(O)C(O)=C1C2=O` [AP] were 4 µg/mL (≈ 8.06 µM), greater than 64 µg/mL and 63%.
Taken in the same sequence, the figures for `CC(C)c1noc(-c2cc(N(C)C)c3c(c2O)C(=O)C2=C(O)[C@]4(O)C(=O)C(C(N)=O)=C(O)C[C@@H]4C[C@@H]2C3)n1` [AR] were 0.5 µg/mL (≈ 0.953 µM), greater than 64 µg/mL and 64%.
As for `CN(C)c1cc(-c2ccnn2C)c(O)c2c1C[C@H]1C[C@H]3CC(O)=C(C(N)=O)C(=O)[C@@]3(O)C(O)=C1C2=O` [AS], in the experiment on S. aureus RN450, the MIC was determined as 1 µg/mL (≈ 2.02 µM). In addition, the MIC in the experiment with E. coli 25922 was greater than 64 µg/mL. In experiment [1], 12 mg/kg produced 30% inhibition in vivo and at 25 mg/kg the inhibition in vivo was 56%.
As to `CC(C)c1cc(N(C)C)c2c(c1O)C(=O)C1=C(O)[C@]3(O)C(=O)C(C(N)=O)=C(O)C[C@@H]3C[C@@H]1C2` [AU], the MIC is 1 µg/mL (≈ 2.19 µM) against S. aureus RN450 and greater than 64 µg/mL in the experiment on E. coli 25922. In experiment [1], the inhibition in vivo at 25 mg/kg stood at 51%.
Taken in the same sequence, the figures for `CN(C)c1cc(CC(C)(C)C)c(O)c2c1C[C@H]1C[C@H]3CC(O)=C(C(N)=O)C(=O)[C@@]3(O)C(O)=C1C2=O` [AW] were 0.5 µg/mL (≈ 1.03 µM), greater than 64 µg/mL and 39%.
Taken in the same sequence, the figures for `CN(C)c1cc(C(=O)CC(C)(C)C)c(O)c2c1C[C@H]1C[C@H]3CC(O)=C(C(N)=O)C(=O)[C@@]3(O)C(O)=C1C2=O` [AX] were 0.5 µg/mL (≈ 0.975 µM), greater than 64 µg/mL and 51%.
Take `Cc1ccc(N(C)C)c2c1C(=O)C1=C(O)[C@]3(O)C(=O)C(C(N)=O)=C(O)C[C@@H]3C[C@@H]1C2` [AY]: the MIC against S. aureus RN450 is 8 µg/mL (≈ 19.4 µM); in the experiment on E. coli 25922, greater than 64 µg/mL. The inhibition in vivo at 25 mg/kg in experiment [1] is 38%.
Take `CN(C)c1cc(C(=O)c2ccccc2)c(O)c2c1C[C@H]1C[C@H]3CC(O)=C(C(N)=O)C(=O)[C@@]3(O)C(O)=C1C2=O` [AZ]: the results for the MIC against S. aureus RN450 and against E. coli 25922 were 1 µg/mL (≈ 1.93 µM) and greater than 64 µg/mL, respectively. In experiment [1], at 25 mg/kg the inhibition in vivo was 36%.
Taken in the same sequence, the figures for `Cc1ccc(O)c2c1C[C@H]1C[C@H]3CC(O)=C(C(N)=O)C(=O)[C@@]3(O)C(O)=C1C2=O` [BA] were 0.25 µg/mL (≈ 0.649 µM), 64 µg/mL (≈ 166 µM) and 34%.
Taken in the same sequence, the figures for `NC(=O)C1=C(O)C[C@@H]2C[C@@H]3Cc4c(-c5ncco5)ccc(O)c4C(=O)C3=C(O)[C@]2(O)C1=O` [BB] were 8 µg/mL (≈ 18.2 µM), greater than 64 µg/mL and 47%.
In turn, `COc1cc(-c2ccc(O)c3c2C[C@H]2C[C@H]4[C@H](N(C)C)C(O)=C(C(N)=O)C(=O)[C@@]4(O)C(O)=C2C3=O)cc(OC)c1OC` [Compound D] showed an inhibition in vivo at 25 mg/kg in experiment [1] of 27%.
On the same count and under the same terms, for `CN(C)c1ccc(O)c2c1C[C@H]1C[C@H]3CC(O)=C(C(N)=O)C(=O)[C@@]3(O)C(O)=C1C2=O` [F] the value was 55%; for `C=CCc1cc(N(C)C)c2c(c1O)C(=O)C1=C(O)[C@]3(O)C(=O)C(C(N)=O)=C(O)[C@@H](N(C)C)[C@@H]3C[C@@H]1C2` [I], 29%.

(Values after patent US20100190755A1, “TETRACYCLINE COMPOUNDS FOR THE TREATMENT OF RHEUMATOID ARTHRITIS AND RELATED METHODS OF TREATMENT” (priority 2008, published 2010).)
